US20140128402A1, “PHARMACEUTICAL COMBINATION” (IPCA Laboratories Limited, priority 2011, published 2014)

Assays:
Assay type in all cases: in vivo, Wistar rats
[1] = test system: STZ-induced diabetic rats; experiment: Study No 1: blood glucose in STZ-induced diabetic rats (HCQ with sitagliptin)
Procedure: (§1) In this experiment 48 Wistar rats weighing 130-150 g of either sex were divided randomly into 8 groups consisting of 6 rats each. The study drugs suspended in vehicle [0.1% w/v suspension of Tween 80 and carboxymethylcellulose (CMC) in water] were administered for orally for 21 days. Group 1 (normal vehicle control) consisted of normal rats that neither received streptozotocin nor any test drug; Group 2 served as streptozotocin induced diabetic control (Diabetes was induced in rats by single administration of streptozotocin (60 mg/kg/i.p) dissolved in 0.1 M-citrate buffer, pH 4.5). Forty-eight hours later, blood samples were collected and glucose levels were determined to confirm the development of diabetes.
Blood glucose level was measured in normal and experimental rats at 1st, 7th, 14th and 21st day of administration. For other biochemical parameters i.e. Insulin, HbA1c, Triglycerides, Total Cholesterol, HDL, SGOT, SGPT, Total Protein, Albumin, Creatinine and Urea Blood samples were collected 1 h after the last dose administration from 18 h fasted rats through the retro-orbital plexus under chloroform anesthesia and analyzed using autoanalyzer (Microlab 2000). Other parameters like body weight, food intake and water intake were evaluated weekly till day 21st.

[2] = test system: STZ-induced diabetic rats; experiment: Study No 1: biochemical parameters in STZ-induced diabetic rats; conditions: after 21 days
Procedure: as §1, with “diabetes. […] Group 3 was diabetic rats treated with dose equivalent to human therapeutic dose of sitagliptin (STG) (11 mg/kg); Group 4 was diabetic rats treated with dose equivalent to human therapeutic dose of Hydroxychloroquine (HCQ) (46 mg/kg), Group 5 was diabetic rats treated with combination of HCQ 46 mg/kg and STG11 mg/kg; […] For other biochemical parameters i.e. […] Other parameters like body weight, food intake and water intake were evaluated weekly till day 21st.” for “diabetes.”

[3] = test system: STZ-induced diabetic rats; experiment: Study No 1: body weight, food intake and water intake in STZ-induced diabetic rats; conditions: for AVERAGE WATER INTAKE: oral
Procedure: as §1, with “diabetes. […] Group 3 was diabetic rats treated with dose equivalent to human therapeutic dose of sitagliptin (STG) (11 mg/kg); Group 4 was diabetic rats treated with dose equivalent to human therapeutic dose of Hydroxychloroquine (HCQ) (46 mg/kg), Group 5 was diabetic rats treated with combination of HCQ 46 mg/kg and STG11 mg/kg; […] For other biochemical parameters i.e. […] Other parameters like body weight, food intake and water intake were evaluated weekly till day 21st.” for “diabetes.”

[4] = subtherapeutic dose: STG 5.5, HCQ 23, STG+HCQ 5.5+23 mg/kg/day oral
[5] = therapeutic dose: STG 11, HCQ 46, STG+HCQ 11+46 mg/kg/day oral

`N[C@@H](CC(=O)N1CCn2c(nnc2C(F)(F)F)C1)Cc1cc(F)c(F)cc1F` [STG, Sitagliptin] was tested, and the Plasma glucose concentration ([1]; 1st day, subtherapeutic dose: STG 5.5, HCQ 23, STG+HCQ 5.5+23 mg/kg oral) was 267.17 ± 12.83 mg/dL, the Plasma glucose concentration ([1]; 1st day, therapeutic dose: STG 11, HCQ 46, STG+HCQ 11+46 mg/kg oral) was 258.33 ± 11.57 mg/dL and the Plasma glucose concentration ([1]; 7th day, subtherapeutic dose: STG 5.5, HCQ 23, STG+HCQ 5.5+23 mg/kg oral) was 261.83 ± 11.58 mg/dL. For the same compound, the Plasma glucose concentration ([1]; 7th day, therapeutic dose: STG 11, HCQ 46, STG+HCQ 11+46 mg/kg oral) was 225.00 ± 12.63 mg/dL, the Plasma glucose concentration ([1]; 14th day, subtherapeutic dose: STG 5.5, HCQ 23, STG+HCQ 5.5+23 mg/kg oral) was 227.83 ± 13.95 mg/dL and the Plasma glucose concentration ([1]; 14th day, therapeutic dose: STG 11, HCQ 46, STG+HCQ 11+46 mg/kg oral, 46 mg/kg) was 206.17 ± 10.26 mg/dL. For the same compound, the Plasma glucose concentration ([1]; 14th day, therapeutic dose: STG 11, HCQ 46, STG+HCQ 11+46 mg/kg oral, listed as sitagliptin, 46 mg/kg) was “significant improvement”, the Plasma glucose concentration ([1]; 21st day, subtherapeutic dose: STG 5.5, HCQ 23, STG+HCQ 5.5+23 mg/kg oral) was 200.83 ± 4.71 mg/dL and the Plasma glucose concentration ([1]; 21st day, therapeutic dose: STG 11, HCQ 46, STG+HCQ 11+46 mg/kg oral) was 156.50 ± 12.85 mg/dL. It also gave an Albumin [2, 4] of 2.20 g/dL, a Creatinine [2, 4] of 1.76 and an HDL-C [2, 4] of 23.92 mg/dL. For the same compound, the HbA1c [2, 4] was 5.12, the “Insulin (serum)” value [2, 4] was 4.43 and the SGOT [2, 4] was 54.02. For the same compound, the SGPT [2, 4] was 54.64, the TC [2, 4] was 156.69 mg/dL and the TG [2, 4] was 121.91 mg/dL. For the same compound, the Total Protein [2, 4] was 4.15 g/dL, the Urea [2, 4] was 45.05 mg/dL and the Albumin [2, 5] was 2.63 g/dL. It also gave a Creatinine [2, 5] of 1.63, an HDL-C [2, 5] of 26.04 mg/dL and a HbA1c [2, 5] of 5.04. For the same compound, the “Insulin (serum)” value [2, 5] was 6.11, the SGOT [2, 5] was 51.47 and the SGPT [2, 5] was 55.47. The TC [2, 5] was 146.92 mg/dL, the TG [2, 5] was 116.48 mg/dL and the Total Protein [2, 5] was 4.83 g/dL. The Urea [2, 5] was 23.57 mg/dL, the “AVERAGE WATER INTAKE” value ([3]; Day 1, Sub-The (subtherapeutic dose)) was 28.33 mL and the “AVERAGE WATER INTAKE” value ([3]; Day 1, The (therapeutic dose)) was 30.67 mL. The Body Weight ([3]; Day 1, subtherapeutic dose: STG 5.5, HCQ 23, STG+HCQ 5.5+23 mg/kg oral) was 145.83 ± 12.61 g, the “AVERAGE FOOD INTAKE” value ([3]; Day 1, subtherapeutic dose: STG 5.5, HCQ 23, combination 5.5+23 mg/kg oral) was 11.50 g and the Body Weight ([3]; Day 1, therapeutic dose: STG 11, HCQ 46, STG+HCQ 11+46 mg/kg oral) was 137.83 ± 6.49 g. The “AVERAGE FOOD INTAKE” value ([3]; Day 1, therapeutic dose: STG 11, HCQ 46, combination 11+46 mg/kg oral) was 12.17 g, the “AVERAGE WATER INTAKE” value ([3]; Day 7, Sub-The (subtherapeutic dose)) was 27.17 mL and the “AVERAGE WATER INTAKE” value ([3]; Day 7, The (therapeutic dose)) was 29.00 mL. The Body Weight ([3]; Day 7, subtherapeutic dose: STG 5.5, HCQ 23, STG+HCQ 5.5+23 mg/kg oral) was 147.83 ± 12.37 g, the “AVERAGE FOOD INTAKE” value ([3]; Day 7, subtherapeutic dose: STG 5.5, HCQ 23, combination 5.5+23 mg/kg oral) was 11.83 g and the Body Weight ([3]; Day 7, therapeutic dose: STG 11, HCQ 46, STG+HCQ 11+46 mg/kg oral) was 142.67 ± 7.45 g. For the same compound, the “AVERAGE FOOD INTAKE” value ([3]; Day 7, therapeutic dose: STG 11, HCQ 46, combination 11+46 mg/kg oral) was 10.67 g, the “AVERAGE WATER INTAKE” value ([3]; Day 14, Sub-The (subtherapeutic dose)) was 26.67 mL and the “AVERAGE WATER INTAKE” value ([3]; Day 14, The (therapeutic dose)) was 28.50 mL. The Body Weight ([3]; Day 14, subtherapeutic dose: STG 5.5, HCQ 23, STG+HCQ 5.5+23 mg/kg oral) was 150.50 ± 12.31 g, the “AVERAGE FOOD INTAKE” value ([3]; Day 14, subtherapeutic dose: STG 5.5, HCQ 23, combination 5.5+23 mg/kg oral) was 10.83 g and the Body Weight ([3]; Day 14, therapeutic dose: STG 11, HCQ 46, STG+HCQ 11+46 mg/kg oral) was 149.00 ± 7.46 g. For the same compound, the “AVERAGE FOOD INTAKE” value ([3]; Day 14, therapeutic dose: STG 11, HCQ 46, combination 11+46 mg/kg oral) was 9.83 g, the “AVERAGE WATER INTAKE” value ([3]; Day 21, Sub-The (subtherapeutic dose)) was 27.00 mL and the “AVERAGE WATER INTAKE” value ([3]; Day 21, The (therapeutic dose)) was 27.17 mL. The “AVERAGE FOOD INTAKE” value ([3]; Day 21, subtherapeutic dose: STG 5.5, HCQ 23, combination 5.5+23 mg/kg oral) was 10.33 g and the “AVERAGE FOOD INTAKE” value ([3]; Day 21, therapeutic dose: STG 11, HCQ 46, combination 11+46 mg/kg oral) was 8.83 g.
